Measured values as given in patent US12338296B2, “Peptides and compounds that bind to elongation initiation factor 4E” (AGENCY FOR SCIENCE, TECHNOLOGY AND RESEARCH, priority 2019, dated 2025).
Peptide text beside a SMILES is read from it.

biological target: T1, eIF4E (Homo sapiens, UniProt P06730); experiment: Surface plasmon resonance Kd determination on immobilized eIF4E (Biacore T100, CM5 chip); format: binding; settings: KD relative to EE-2 (SPR)
T1 construct: made in house; Plasmid and cells were provided by Cyclacel Ltd., Dundee
Description: Surface Plasmon Resonance (for Structural Activity Relationship (SAR) Tables)
For stock peptide solutions, the compounds were dissolved in 100% DMSO to a concentration of 10 mM; further dilutions of the peptide stock solutions into DMSO and/or running buffer were performed immediately prior to analysis. Running buffer consisted of 10 mM Hepes pH 7.6, 0.15 M NaCl, and 0.1% Tween20. Stock/DMSO diluted peptide solutions were diluted into 1.03× running buffer to make a peptide solution with 3% DMSO final concentration. […] Surface Plasmon resonance experiments were performed on a Biacore T100 machine.
Pure eIF4E was immnobilized on a CM5 sensor chip. The CM5 chip was conditioned with a 6 s injection of 100 mM HCL, followed by a 6 s injection of 0.1% SDS and completed with a 6 s injection of 50 mM NaOH at a flow rate of 100 μl/min. Activation of the sensor chip surface was performed with a mixture of NHS (115 mg ml^−1) and EDC (750 mg ml^−1) for 7 min at 10 μl min^−1. […] The amount of eIF4E immobilized on the activated surface was controlled by altering the contact time of the protein solution and was approximately 1000 RU. After the immobilization of the protein, a 7-min injection (at 10 μl min^−1) of 1 M ethanolamine (pH 8.5) was used to quench excess active succinimide ester groups.
Six buffer blanks were first injected to equilibrate the instrument fully and then a solvent correction curve was performed followed by a further two blank injections. The solvent correction curve was setup by adding varying amount of 100% DMSO to 1.03× running buffer to generate a range of DMSO solutions (3.8%, 3.6%, 3.4%, 3.2%, 3%, 2.85%, 2.7% and 2.5% respectively). Using a flow rate of 50 μl/min, compounds were injected for 60 s and dissociation was monitored for 180 s. The data collection rate was 10 Hz. Kds were determined using the BiaEvaluation software (Biacore) and calculated from both the response of the eIF4E coated CM5 chips at equilibrium and also kinetically from the dissociation and association phase data for each of the peptides. Both the equilibrium and kinetic data were fitted to 1:1 binding models. Each individual peptide Kd was determined from three separate titrations. Within each titration at least two concentration points were duplicated to ensure stability and robustness of the chip surface.
Kd were determined using surface plasmon resonance (SPR) as described in Methods.

T1 sequence (P06730 whole entry): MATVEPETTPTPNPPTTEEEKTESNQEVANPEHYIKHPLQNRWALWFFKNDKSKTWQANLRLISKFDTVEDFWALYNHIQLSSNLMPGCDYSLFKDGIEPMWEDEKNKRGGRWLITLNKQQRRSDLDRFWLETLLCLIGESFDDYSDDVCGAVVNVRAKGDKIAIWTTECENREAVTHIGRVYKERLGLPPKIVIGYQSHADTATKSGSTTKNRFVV

Row | Compound | Fold change
1 | CSCC[C@@H]1NC(=O)[C@H](CCC(=O)O)NC(=O)[C@@H](NC(=O)[C@H](C)NC(C)=O)CSSC[C@@H](C(=O)NCC(N)=O)NC(=O)[C@H](CC(=O)O)NC(=O)[C@H](CCC(N)=O)NC(=O)[C@H](Cc2ccccc2)NC(=O)[C@H](Cc2ccccc2)NC(=O)CNC1=O [EE-11] | 4.9
2 | CSCC[C@@H]1NC(=O)[C@H](CCC(=O)O)NC(=O)[C@@H](NC(=O)[C@H](C)N)CSSC[C@@H](C(=O)NCC(N)=O)NC(=O)[C@H](CC(=O)O)NC(=O)[C@H](CCCCN)NC(=O)[C@H](Cc2ccccc2)NC(=O)[C@H](Cc2ccccc2)NC(=O)CNC1=O [EE-39] (HELM PEPTIDE1{A.C.E.M.G.F.F.K.D.C.G.[am]}$PEPTIDE1,PEPTIDE1,2:R3-10:R3$$$V2.0) | 0.5
3 | CSCC[C@@H]1NC(=O)[C@H](CCC(=O)O)NC(=O)[C@@H](N)CSSC[C@@H](C(N)=O)NC(=O)[C@H](CC(=O)O)NC(=O)[C@H](C)NC(=O)[C@H](Cc2ccccc2)NC(=O)[C@H](Cc2ccccc2)NC(=O)CNC1=O [EE-44] (HELM PEPTIDE1{C.E.M.G.F.F.A.D.C.[am]}$PEPTIDE1,PEPTIDE1,1:R3-9:R3$$$V2.0) | 0.4
4 | CSCC[C@@H]1NC(=O)[C@H](CCC(=O)O)NC(=O)[C@@H](NC(=O)[C@H](C)N)CSSC[C@@H](C(=O)NCC(N)=O)NC(=O)[C@H](CC(=O)O)NC(=O)CNC(=O)[C@H](Cc2ccccc2)NC(=O)[C@H](Cc2ccccc2)NC(=O)CNC1=O [EE-40] (HELM PEPTIDE1{A.C.E.M.G.F.F.G.D.C.G.[am]}$PEPTIDE1,PEPTIDE1,2:R3-10:R3$$$V2.0) | 1.9
5 | CSCC[C@@H]1NC(=O)[C@H](CCC(=O)O)NC(=O)[C@@H](NC(=O)[C@H](C)N)CSSC[C@@H](C(=O)NCC(N)=O)NC(=O)[C@H](CC(=O)O)NC(=O)[C@H](CC(C)C)NC(=O)[C@H](Cc2ccccc2)NC(=O)[C@H](Cc2ccccc2)NC(=O)CNC1=O [EE-41] (HELM PEPTIDE1{A.C.E.M.G.F.F.L.D.C.G.[am]}$PEPTIDE1,PEPTIDE1,2:R3-10:R3$$$V2.0) | 0.9

same assay, conditions: SPR, eIF4E immobilized on CM5 chip, 1:1 binding model, three separate titrations

Row | Compound | Kd [µM]
6 | CSCC[C@@H]1NC(=O)[C@H](CCC(=O)O)NC(=O)[C@@H](NC(=O)[C@H](C)N)CSSC[C@@H](C(=O)NCC(N)=O)NC(=O)[C@H](CC(=O)O)NC(=O)[C@H](CCC(N)=O)NC(=O)[C@H](Cc2ccccc2)NC(=O)[C@H](Cc2ccccc2)NC(=O)[C@@H]2CCCN2C1=O [EE-29] (HELM PEPTIDE1{A.C.E.M.P.F.F.Q.D.C.G.[am]}$PEPTIDE1,PEPTIDE1,2:R3-10:R3$$$V2.0) | > 50
7 | CSCC[C@@H]1NC(=O)[C@H](CCC(=O)O)NC(=O)[C@@H](NC(=O)[C@H](C)NC(C)=O)CSSC[C@@H](C(=O)NCC(N)=O)NC(=O)[C@H](CC(=O)O)NC(=O)[C@H](CCC(N)=O)NC(=O)[C@H](Cc2ccccc2)NC(=O)[C@H](Cc2ccccc2)NC(=O)CNC1=O [EE-11] | 1
8 | CSCC[C@@H]1NC(=O)[C@H](CCC(=O)O)NC(=O)[C@@H](NC(=O)[C@H](C)N)CSSC[C@@H](C(=O)NCC(N)=O)NC(=O)[C@H](CC(=O)O)NC(=O)[C@H](CCC(N)=O)NC(=O)[C@H](CC(C)C)NC(=O)[C@H](CC(C)C)NC(=O)CNC1=O [EE-38] (HELM PEPTIDE1{A.C.E.M.G.L.L.Q.D.C.G.[am]}$PEPTIDE1,PEPTIDE1,2:R3-10:R3$$$V2.0) | > 50
9 | CSCC[C@@H]1NC(=O)[C@H](CCC(=O)O)NC(=O)[C@@H](NC(=O)[C@H](C)N)CSSC[C@@H](C(=O)NCC(N)=O)NC(=O)[C@H](CC(=O)O)NC(=O)CNC(=O)[C@H](Cc2ccccc2)NC(=O)[C@H](Cc2ccccc2)NC(=O)CNC1=O [EE-40] (HELM PEPTIDE1{A.C.E.M.G.F.F.G.D.C.G.[am]}$PEPTIDE1,PEPTIDE1,2:R3-10:R3$$$V2.0) | 0.4
10 | C[C@H](N)C(=O)N[C@H]1CSSC[C@@H](C(=O)NCC(N)=O)NC(=O)[C@H](CC(=O)O)NC(=O)[C@H](CCC(N)=O)NC(=O)[C@H](Cc2ccccc2)NC(=O)[C@H](Cc2ccccc2)NC(=O)CNC(=O)[C@H](C)NC(=O)[C@H](CCC(=O)O)NC1=O [EE-2B] (HELM PEPTIDE1{A.C.E.A.G.F.F.Q.D.C.G.[am]}$PEPTIDE1,PEPTIDE1,2:R3-10:R3$$$V2.0) | > 50
11 | CSCC[C@@H]1NC(=O)[C@H](CCC(=O)O)NC(=O)[C@@H](NC(=O)[C@H](C)N)CSSC[C@@H](C(=O)NCC(N)=O)NC(=O)[C@H](CC(=O)O)NC(=O)[C@H](CCC(N)=O)NC(=O)[C@H](Cc2ccccc2)NC(=O)[C@H](Cc2ccccc2)NC(=O)[C@H](C)NC1=O [EE-2C] (HELM PEPTIDE1{A.C.E.M.A.F.F.Q.D.C.G.[am]}$PEPTIDE1,PEPTIDE1,2:R3-10:R3$$$V2.0; bridges inferred) | 32
12 | CSCC[C@@H]1NC(=O)[C@H](CCC(=O)O)NC(=O)[C@@H](NC(=O)[C@H](C)N)CSSC[C@@H](C(=O)NCC(N)=O)NC(=O)[C@H](CC(=O)O)NC(=O)[C@H](CCC(N)=O)NC(=O)[C@H](C)NC(=O)[C@H](Cc2ccccc2)NC(=O)CNC1=O [EE-2E] (HELM PEPTIDE1{A.C.E.M.G.F.A.Q.D.C.G.[am]}$PEPTIDE1,PEPTIDE1,2:R3-10:R3$$$V2.0) | > 50
13 | CSCC[C@@H]1NC(=O)[C@H](CCC(=O)O)NC(=O)[C@@H](NC(=O)[C@H](C)N)CSSC[C@@H](C(=O)NCC(N)=O)NC(=O)[C@H](CC(=O)O)NC(=O)[C@H](CCC(N)=O)NC(=O)[C@H](CC(C)C)NC(=O)[C@H](Cc2ccccc2)NC(=O)CNC1=O [EE-34] (HELM PEPTIDE1{A.C.E.M.G.F.L.Q.D.C.G.[am]}$PEPTIDE1,PEPTIDE1,2:R3-10:R3$$$V2.0) | > 50
14 | CSCC[C@@H]1NC(=O)[C@H](CCC(=O)O)NC(=O)[C@@H](NC(=O)[C@H](C)N)CSSC[C@@H](C(=O)NCC(N)=O)NC(=O)[C@H](CC(=O)O)NC(=O)[C@H](CCC(N)=O)NC(=O)[C@H](Cc2ccccc2)NC(=O)[C@H](Cc2ccccc2)NC(=O)CCNC1=O [EE-27] (HELM PEPTIDE1{A.C.E.M.[bAla].F.F.Q.D.C.G.[am]}$PEPTIDE1,PEPTIDE1,2:R3-10:R3$$$V2.0) | > 50
15 | CSCC[C@@H]1NC(=O)[C@H](C)NC(=O)[C@@H](NC(=O)[C@H](C)N)CSSC[C@@H](C(=O)NCC(N)=O)NC(=O)[C@H](CC(=O)O)NC(=O)[C@H](CCC(N)=O)NC(=O)[C@H](Cc2ccccc2)NC(=O)[C@H](Cc2ccccc2)NC(=O)CNC1=O [EE-2A] (HELM PEPTIDE1{A.C.A.M.G.F.F.Q.D.C.G.[am]}$PEPTIDE1,PEPTIDE1,2:R3-10:R3$$$V2.0; bridges inferred) | 11
16 | CSCC[C@@H]1NC(=O)[C@H](CCC(=O)O)NC(=O)[C@@H](NC(=O)[C@H](C)N)CSSC[C@@H](C(=O)NCC(N)=O)NC(=O)[C@H](CC(=O)O)NC(=O)[C@H](CCC(N)=O)NC(=O)[C@H](Cc2ccccc2)NC(=O)[C@H](CC(C)C)NC(=O)CNC1=O [EE-33] (HELM PEPTIDE1{A.C.E.M.G.L.F.Q.D.C.G.[am]}$PEPTIDE1,PEPTIDE1,2:R3-10:R3$$$V2.0) | > 50

same assay, conditions: SPR, in words

Row | Compound | binding to eIF4E compared with EE-02
17 | CSCC[C@@H]1NC(=O)[C@H](CCC(=O)O)NC(=O)[C@@H](NC(=O)[C@H](C)N)CSSC[C@@H](C(=O)NCC(N)=O)NC(=O)[C@H](CC(=O)O)NC(=O)[C@H](CCC(N)=O)NC(=O)[C@H](Cc2ccccc2)NC(=O)[C@H](Cc2ccc(O)cc2)NC(=O)CNC1=O [EE-30] (HELM PEPTIDE1{A.C.E.M.G.Y.F.Q.D.C.G.[am]}$PEPTIDE1,PEPTIDE1,2:R3-10:R3$$$V2.0) | bound more tightly than EE-02
18 | CSCC[C@@H]1NC(=O)[C@H](CCC(=O)O)NC(=O)[C@@H](NC(=O)[C@H](C)N)CSSC[C@@H](C(=O)NCC(N)=O)NC(=O)[C@H](CC(=O)O)NC(=O)[C@H](CCC(N)=O)NC(=O)[C@H](Cc2ccc(O)cc2)NC(=O)[C@H](Cc2ccccc2)NC(=O)CNC1=O [EE-35] (HELM PEPTIDE1{A.C.E.M.G.F.Y.Q.D.C.G.[am]}$PEPTIDE1,PEPTIDE1,2:R3-10:R3$$$V2.0) | bound more tightly than EE-02

biological target: T1, eIF4E; experiment: Tryptophan quenching experiments; format: binding; settings: 1 μM eIF4E, 0.01-20 μM titrant, excitation 290 nm, emission 355 nm; FIG. 2
Description: Tryptophan Quenching Experiments
Tryptophan quenching experiments were performed using an EnVision® multiplate reader with black matte 96-well plates. […] Concentrations tested ranged from 0.01-20 μM. Samples were excited with UV light at 290 nm to minimise contribution from tyrosine fluorescence. Tryptophan was measured at an emission wavelength of 355 nm.

Row | Compound | tryptophan quenching of eIF4E
19 | KKRYSRDQLVAL (Synthetic peptide PHAGESOL) [reference compound] | significantly lower amounts of tryptophan quenching
